One assay deals with HepG2. Nature of the assay: Cytotoxicity against human HepG2 cells assessed as cell survival after 48 hrs by SRB assay. The class given is functional, cell-based. As to conditions: HepG2, 48 h.
The subject of a further assay is Escherichia coli. Nature of the assay: Antibacterial activity against Escherichia coli ATCC 11775 assessed as growth inhibition after 24 to 48 hrs by kirby-bauer disc diffusion method. The class given is functional, DSM 30083 = JCM 1649.
The test system of a further assay is Bacillus subtilis. In words: Antibacterial activity against Bacillus subtilis ATCC 6051 assessed as growth inhibition after 24 to 48 hrs by kirby-bauer disc diffusion method. The class given is functional.
The test system of assay [1] is Pseudomonas aeruginosa. Nature of the assay: Antibacterial activity against Pseudomonas aeruginosa ATCC 10145 assessed as growth inhibition after 24 to 48 hrs by kirby-bauer disc diffusion method. The class given is functional.
Another assay relates to MCF7. Nature of the assay: Cytotoxicity against human MCF7 cells assessed as cell survival after 48 hrs by SRB assay. The assay is classed as functional, cell-based. Conditions: MCF7, 48 h.
Assay [2] deals with Staphylococcus aureus. Nature of the assay: Antibacterial activity against Staphylococcus aureus ATCC 12600 assessed as growth inhibition after 24 to 48 hrs by kirby-bauer disc diffusion method. The class given is functional.
Assay [3] concerns Pseudomonas aeruginosa. Nature of the assay: Antibacterial activity against Pseudomonas aeruginosa ATCC 10145 assessed as growth inhibition by broth microdilution method. The assay is classed as functional.
Assay [4] concerns Staphylococcus aureus. Nature of the assay: Antibacterial activity against Staphylococcus aureus ATCC 12600 assessed as growth inhibition by broth microdilution method. The class given is functional.

SMILES strings stand for the structures.

Take `COc1cc(-c2nc3sc4c(c3c(=O)n2C(N)=S)CCCC4)cc(OC)c1OC`: the IC50 in the assay on HepG2 is greater than 232 µM; in the assay with MCF7 it was 77.6 µM. Besides, the “diameter of the inhibition zone (DIZ)” value was 14 mm in the assay with Escherichia coli, 12 mm in the assay with Bacillus subtilis, 13 mm with Pseudomonas aeruginosa [1] and 12 mm in the assay with Staphylococcus aureus [2].
As for `COc1cc(-c2nc3sc4c(c3c(=O)n2C(N)=O)CCCC4)cc(OC)c1OC`, the IC50 in the assay with HepG2 is 25.8 µM; in the assay on MCF7, 26.2 µM. Moreover, the “diameter of the inhibition zone (DIZ)” value is listed as 16 mm with Escherichia coli, 16 mm with Bacillus subtilis, 17 mm in the assay with Pseudomonas aeruginosa [1] and 16 mm with Staphylococcus aureus [2].
In the case of `COc1cc(-c2nc3sc4c(c3c(=O)n2C(=O)NO)CCCC4)cc(OC)c1OC`, the IC50 with HepG2 is 14.4 µM; with MCF7, 71.2 µM. The “diameter of the inhibition zone (DIZ)” value worked out at 14 mm with Escherichia coli, 13 mm in the assay with Bacillus subtilis, 13 mm in the assay with Pseudomonas aeruginosa [1] and 12 mm in the assay with Staphylococcus aureus [2].
Turning to `COc1cc(-c2nc3sc4c(c3c(=O)n2-c2ccc(C(=O)O)cc2)CCCC4)cc(OC)c1OC`, the IC50 is 29.6 µM in the assay on HepG2 and greater than 203 µM in the assay on MCF7. The “diameter of the inhibition zone (DIZ)” value came to 10 mm with Escherichia coli, 12 mm with Bacillus subtilis, 10 mm with Pseudomonas aeruginosa [1] and 11 mm with Staphylococcus aureus [2].
On to `COc1cc(-c2nc3sc4c(c3c(=O)n2-c2ccc(S(N)(=O)=O)cc2)CCCC4)cc(OC)c1OC`, for which the IC50 in the assay with HepG2 is greater than 190 µM; with MCF7 it was 37.1 µM. In addition, the “diameter of the inhibition zone (DIZ)” value in the assay with Escherichia coli is reported as 12 mm; in the assay on Bacillus subtilis, 14 mm; in the assay on Pseudomonas aeruginosa [1], 13 mm; in the assay with Staphylococcus aureus [2], 9 mm.
In the case of `COc1cc(-c2nc3sc4c(c3c(=O)n2-c2ccc3c(C)c5ccc(N)cc5nc3c2)CCCC4)cc(OC)c1OC`, the IC50 in the assay with HepG2 is 5.5 µM; in the assay with MCF7, 0.86 µM. The “diameter of the inhibition zone (DIZ)” value in the assay with Escherichia coli is 22 mm; in the assay with Bacillus subtilis, 23 mm; in the assay on Pseudomonas aeruginosa [1] it was 25 mm; in the assay with Staphylococcus aureus [2], 26 mm. Moreover, the minimum inhibitory concentration (MIC) with Pseudomonas aeruginosa [3] came out at 11 µg/mL; with Staphylococcus aureus [4], 8 µg/mL.
With `Cc1c2ccc(N)cc2nc2cc(-n3c(/C=C/c4ccccc4)nc4sc5c(c4c3=O)CCCC5)ccc12`, the IC50 in the assay with HepG2 stood at 5.82 µM; in the assay with MCF7, 0.19 µM. For the same compound, the “diameter of the inhibition zone (DIZ)” value in the assay with Escherichia coli stood at 21 mm; with Bacillus subtilis it was 20 mm; with Pseudomonas aeruginosa [1] it was 21 mm; with Staphylococcus aureus [2] it was 24 mm. Besides, the MIC in the assay on Pseudomonas aeruginosa [3] is 18 µg/mL; with Staphylococcus aureus [4] it was 13 µg/mL.
As to `CC1(C)S[C@@H]2[C@H](NC(=O)[C@H](N)c3ccccc3)C(=O)N2[C@H]1C(=O)O` [AMPICILLIN], the “diameter of the inhibition zone (DIZ)” value is given as 22 mm in the assay on Escherichia coli, 20 mm in the assay on Bacillus subtilis, 17 mm with Pseudomonas aeruginosa [1] and 18 mm in the assay with Staphylococcus aureus [2]. Also, the MIC in the assay with Pseudomonas aeruginosa [3] came to 56 µg/mL; with Staphylococcus aureus [4], 48 µg/mL.

The values are drawn from ChEMBL document CHEMBL2401715, “Synthesis, antitumor and antibacterial activities of some novel tetrahydrobenzo[4,5]thieno[2,3-d]pyrimidine derivatives” (Eur J Med Chem, 2013).
